Target: T1, human STING (Homo sapiens, UniProt Q86WV6, G230A/H232R/R293Q/R71H)
T1 construct: THP1-Blue™ ISG cells (a human monocyte cell line transfected with an IRF-inducible secreted embryonic alkaline phosphatase reporter gene); host or cells: THP1-Blue ISG cells (human monocyte cell line)
Assay: Inhibition of ML RR-CDA-mediated induction of type I IFN in THP1-Blue ISG reporter cells (QUANTI-Blue, A655)
Assay type: cell-based
Source text: To evaluate if the antagonist 2′-O-propargyl-cyclic-[A(2′,5′)pA(3′,5′)p] (ML-propargyl-CDA) can inhibit STING-dependent induction of type I interferon induction by Rp, Rp dithio cyclic [A(2′,5′)pA(3′,5′)p] (ML RR-CDA) in human cells, 4×10^5 THP1-Blue™ ISG cells (a human monocyte cell line transfected with an IRF-inducible secreted embryonic alkaline phosphatase reporter gene (Invivogen) which express alkaline phosphatase under the control of a promoter comprised of five IFN-stimulated response elements) were incubated with 50 μM of Rp, Rp dithio cyclic [A(2′,5′)pA(3′,5′)p] (ML RR-CDA), 10 μM or 50 μM of the antagonist 2′-O-propargyl-cyclic-[A(2′,5′)pA(3′,5′)p] (ML-propargyl-CDA), both 50 μM Rp, Rp dithio cyclic [A(2′,5′)pA(3′,5′)p] (ML RR-CDA) and 10 μM or 50 μM 2′-O-propargyl-cyclic-[A(2′,5′)pA(3′,5′)p] (ML-propargyl-CDA), or 50 μM Rp, Rp dithio cyclic [A(2′,5′)pA(3′,5′)p] (ML RR-CDA) after a 30 min pre-incubation with 10 μM 2′-O-propargyl-cyclic-[A(2′,5′)pA(3′,5′)p] (ML-propargyl-CDA). After 30 minutes, cells were washed and plated in 96-well dish in RPMI media containing 10% FBS, and incubated at 37° C. with 5% CO2. Cell culture supernatants from each sample were collected after 16 hr incubation, and 20 μL of the cell culture supernatants was added to 180 μL QUANTI-Blue reagent (Invivogen) and incubated for 5 minutes to evaluate type I interferon protein levels. Readings at Absorbance 655 nm were measured with a Versa Max kinetic spectrophotometer ([…]).

T1 sequence (Q86WV6 whole entry R71H/G230A/H232R/R293Q): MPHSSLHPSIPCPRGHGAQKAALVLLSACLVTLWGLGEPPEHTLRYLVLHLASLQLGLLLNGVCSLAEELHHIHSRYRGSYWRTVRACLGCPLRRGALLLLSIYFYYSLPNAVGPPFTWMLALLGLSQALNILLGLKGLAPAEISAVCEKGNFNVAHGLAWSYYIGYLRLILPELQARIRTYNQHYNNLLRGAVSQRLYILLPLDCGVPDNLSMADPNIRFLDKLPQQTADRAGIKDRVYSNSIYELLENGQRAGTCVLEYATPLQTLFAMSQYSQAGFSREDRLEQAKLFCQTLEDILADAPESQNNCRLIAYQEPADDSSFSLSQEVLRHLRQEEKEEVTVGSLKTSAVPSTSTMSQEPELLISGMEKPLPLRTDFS

## C#CCO[C@@H]1[C@@H]2OP(=O)(O)OC[C@H]3O[C@@H](n4cnc5c(N)ncnc54)[C@H](OP(=O)(O)OC[C@H]2O[C@H]1n1cnc2c(N)ncnc21)[C@@H]3O [ML-propargyl-CDA, 2′-O-propargyl-cyclic-A(2′,5′)pA(3′,5′)p]
THP1-Blue ISG cells, 10 μM or 50 μM antagonist added simultaneously with 50 μM ML RR-CDA, FIG. 7A
  inhibition of induction of type I IFN by ML RR-CDA: significantly inhibited
THP1-Blue ISG cells, 30 min pre-incubation with 10 μM antagonist, then 50 μM ML RR-CDA, FIG. 7B
  inhibition of induction of type I interferon by ML RR-CDA: inhibits
Concluded from reduction of ML RR-CDA-induced type I IFN production in THP1-Blue ISG cells
  functional character at human STING: antagonist of human STING
